Source: PubChem BioAssay (NCI)
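All cell lines were grown in 96-well plates and treated with compound for 48 hours. TGI denotes the concentration required for complete inhibition of growth.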

Experiments:
Assay in all cases: NCI anticancer screen, dose series, 48 h
786-0 renal = tested on: 786-0 renal
A498 renal = tested on: A498 renal
A549 NSCLC = tested on: A549 NSCLC
ACHN renal = tested on: ACHN renal
BT-549 breast = tested on: BT-549 breast
CAKI-1 renal = tested on: CAKI-1 renal
CCRF-CEM leukemia = tested on: CCRF-CEM leukemia
COLO 205 colon = tested on: COLO 205 colon
DU-145 prostate = tested on: DU-145 prostate
EKVX NSCLC = tested on: EKVX NSCLC
HCC-2998 colon = tested on: HCC-2998 colon
HCT-116 colon = tested on: HCT-116 colon
HCT-15 colon = tested on: HCT-15 colon
HL-60(TB) leukemia = tested on: HL-60(TB) leukemia
HOP-62 NSCLC = tested on: HOP-62 NSCLC
HOP-92 NSCLC = tested on: HOP-92 NSCLC
HS 578T breast = tested on: HS 578T breast
HT29 colon = tested on: HT29 colon
IGROV1 ovarian = tested on: IGROV1 ovarian
K-562 leukemia = tested on: K-562 leukemia
KM12 colon = tested on: KM12 colon
LOX IMVI melanoma = tested on: LOX IMVI melanoma
M14 melanoma = tested on: M14 melanoma
MALME-3M melanoma = tested on: MALME-3M melanoma
MCF7 breast = tested on: MCF7 breast
MDA-MB-231 breast = tested on: MDA-MB-231 breast
MDA-MB-435 = tested on: MDA-MB-435
MDA-N = tested on: MDA-N
MOLT-4 leukemia = tested on: MOLT-4 leukemia
NCI-H226 lung = tested on: NCI-H226 lung
NCI-H23 lung = tested on: NCI-H23 lung
NCI-H460 lung = tested on: NCI-H460 lung
NCI-H522 lung = tested on: NCI-H522 lung
NCI/ADR-RES ovarian = tested on: NCI/ADR-RES ovarian
OVCAR-3 ovarian = tested on: OVCAR-3 ovarian
OVCAR-4 ovarian = tested on: OVCAR-4 ovarian
OVCAR-5 ovarian = tested on: OVCAR-5 ovarian
OVCAR-8 ovarian = tested on: OVCAR-8 ovarian
PC-3 prostate = tested on: PC-3 prostate
RPMI-8226 leukemia = tested on: RPMI-8226 leukemia
RXF 393 renal = tested on: RXF 393 renal
SF-268 CNS = tested on: SF-268 CNS
SF-295 CNS = tested on: SF-295 CNS
SF-539 CNS = tested on: SF-539 CNS
SK-MEL-2 melanoma = tested on: SK-MEL-2 melanoma
SK-MEL-28 melanoma = tested on: SK-MEL-28 melanoma
SK-MEL-5 melanoma = tested on: SK-MEL-5 melanoma
SK-OV-3 ovarian = tested on: SK-OV-3 ovarian
SN12C renal = tested on: SN12C renal
SNB-19 CNS = tested on: SNB-19 CNS
SNB-75 CNS = tested on: SNB-75 CNS
SR leukemia = tested on: SR leukemia
SW-620 colon = tested on: SW-620 colon
T-47D breast = tested on: T-47D breast
TK-10 renal = tested on: TK-10 renal
U251 CNS = tested on: U251 CNS
UACC-257 melanoma = tested on: UACC-257 melanoma
UACC-62 melanoma = tested on: UACC-62 melanoma

OC(NN=C1CCCC1)(C(F)(F)Cl)C(F)(F)Cl
TGI (786-0 renal): > 10 µM
TGI (A498 renal): > 10 µM
TGI (A549 NSCLC): > 10 µM
TGI (ACHN renal): > 10 µM
TGI (BT-549 breast): > 10 µM
TGI (CAKI-1 renal): > 10 µM
TGI (CCRF-CEM leukemia): > 10 µM
TGI (COLO 205 colon): > 10 µM
TGI (DU-145 prostate): > 10 µM
TGI (EKVX NSCLC): > 10 µM
TGI (HCC-2998 colon): > 10 µM
TGI (HCT-116 colon): > 10 µM
TGI (HCT-15 colon): > 10 µM
TGI (HL-60(TB) leukemia): > 10 µM
TGI (HOP-62 NSCLC): > 10 µM
TGI (HOP-92 NSCLC): > 10 µM
TGI (HS 578T breast): > 10 µM
TGI (HT29 colon): > 10 µM
TGI (IGROV1 ovarian): > 10 µM
TGI (K-562 leukemia): > 10 µM
TGI (KM12 colon): > 10 µM
TGI (LOX IMVI melanoma): > 10 µM
TGI (M14 melanoma): > 10 µM
TGI (MALME-3M melanoma): > 10 µM
TGI (MCF7 breast): > 10 µM
TGI (MDA-MB-231 breast): > 10 µM
TGI (MDA-MB-435): > 10 µM
TGI (MDA-N): > 10 µM
TGI (MOLT-4 leukemia): > 10 µM
TGI (NCI-H226 lung): > 10 µM
TGI (NCI-H23 lung): > 10 µM
TGI (NCI-H460 lung): > 10 µM
TGI (NCI-H522 lung): > 10 µM
TGI (NCI/ADR-RES ovarian): > 10 µM
TGI (OVCAR-3 ovarian): > 10 µM
TGI (OVCAR-4 ovarian): > 10 µM
TGI (OVCAR-5 ovarian): > 10 µM
TGI (OVCAR-8 ovarian): > 10 µM
TGI (PC-3 prostate): > 10 µM
TGI (RPMI-8226 leukemia): > 10 µM
TGI (RXF 393 renal): > 10 µM
TGI (SF-268 CNS): > 10 µM
TGI (SF-295 CNS): > 10 µM
TGI (SF-539 CNS): > 10 µM
TGI (SK-MEL-2 melanoma): > 10 µM
TGI (SK-MEL-28 melanoma): > 10 µM
TGI (SK-MEL-5 melanoma): > 10 µM
TGI (SK-OV-3 ovarian): > 10 µM
TGI (SN12C renal): > 10 µM
TGI (SNB-19 CNS): > 10 µM
TGI (SNB-75 CNS): > 10 µM
TGI (SR leukemia): > 10 µM
TGI (SW-620 colon): > 10 µM
TGI (T-47D breast): > 10 µM
TGI (TK-10 renal): > 10 µM
TGI (U251 CNS): > 10 µM
TGI (UACC-257 melanoma): > 10 µM
TGI (UACC-62 melanoma): > 10 µM

CC1(C)Oc2ccc3c(=O)cc(-c4ccccc4)oc3c2C1C(=O)O (stereo unspecified)
TGI (786-0 renal): > 100 µM
TGI (A498 renal): > 100 µM
TGI (A549 NSCLC): > 100 µM
TGI (BT-549 breast): > 100 µM
TGI (CAKI-1 renal): > 100 µM
TGI (CCRF-CEM leukemia): > 100 µM
TGI (COLO 205 colon): > 100 µM
TGI (DU-145 prostate): > 100 µM
TGI (EKVX NSCLC): > 100 µM
TGI (HCC-2998 colon): > 100 µM
TGI (HCT-116 colon): > 100 µM
TGI (HCT-15 colon): > 100 µM
TGI (HL-60(TB) leukemia): > 100 µM
TGI (HOP-62 NSCLC): > 100 µM
TGI (HS 578T breast): > 100 µM
TGI (HT29 colon): > 100 µM
TGI (IGROV1 ovarian): > 100 µM
TGI (K-562 leukemia): > 100 µM
TGI (M14 melanoma): > 100 µM
TGI (MALME-3M melanoma): > 100 µM
TGI (MCF7 breast): > 100 µM
TGI (MDA-MB-231 breast): > 100 µM
TGI (MDA-MB-435): > 100 µM
TGI (MDA-N): > 100 µM
TGI (MOLT-4 leukemia): > 100 µM
TGI (NCI-H226 lung): > 100 µM
TGI (NCI-H23 lung): > 100 µM
TGI (NCI-H522 lung): > 100 µM
TGI (NCI/ADR-RES ovarian): > 100 µM
TGI (OVCAR-3 ovarian): > 100 µM
TGI (OVCAR-4 ovarian): > 100 µM
TGI (OVCAR-5 ovarian): > 100 µM
TGI (OVCAR-8 ovarian): > 100 µM
TGI (PC-3 prostate): > 100 µM
TGI (RXF 393 renal): > 100 µM
TGI (SF-268 CNS): > 100 µM
TGI (SF-295 CNS): > 100 µM
TGI (SF-539 CNS): > 100 µM
TGI (SK-MEL-2 melanoma): > 100 µM
TGI (SK-MEL-5 melanoma): > 100 µM
TGI (SK-OV-3 ovarian): > 100 µM
TGI (SN12C renal): > 100 µM
TGI (SR leukemia): > 100 µM
TGI (T-47D breast): > 100 µM
TGI (TK-10 renal): > 100 µM
TGI (U251 CNS): > 100 µM
TGI (UACC-257 melanoma): > 100 µM
TGI (UACC-62 melanoma): > 100 µM
